Source: patent US12077503B2, “Substituted cyclic amides and their use as herbicides” (FMC CORPORATION, priority 2015, dated 2024)

Key:
Format in all cases: in vivo
[1] = system: barnyardgrass (Echinochloa crus-galli); experiment: Test G Post-Emergence Protocol; details: Echinochloa crus-galli, post-emergence, 312 h
Procedure, shortened: (§1)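 Eight days post-sowing, plants received a spray of test compound (acetone/water 50:50, 0.5% Tween 20) at 15.625, 62.5 or 250 g/ha. Glasshouse regime thereafter: 24/16 °C, 14 h light, 65% humidity. Assessment after 13 days on a 0–100 damage scale.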

[2] = system: giant foxtail (Setaria faberi); experiment: Test G Post-Emergence Protocol; details: Setaria faberi, post-emergence, 312 h
Procedure, shortened: as §1

[3] = system: redroot pigweed (Amaranthus retroflexus); experiment: Test G Post-Emergence Protocol; details: Amaranthus retroflexus, post-emergence, 312 h
Procedure, shortened: as §1

[4] = system: velvetleaf (Abutilon theophrasti); experiment: Test G Post-Emergence Protocol; details: Abutilon theophrasti, post-emergence, 312 h
Procedure, shortened: as §1

corn (Zea mays) [5] = experiment: Test G Post-Emergence Protocol; details: Zea mays, post-emergence, 312 h
Procedure, shortened: as §1

[6] = system: ivy-leaved morning glory (Ipomoea hederacea); experiment: Test G Post-Emergence Protocol; details: Ipomoea, post-emergence, 312 h
Procedure, shortened: as §1

[7] = system: barnyardgrass (Echinochloa crus-galli); experiment: Test G Pre-Emergence Protocol; details: Echinochloa crus-galli, pre-emergence, 312 h, evaluated after 13 days
Procedure, shortened: (§2)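 Scores are visual damage ratings from 0 (no damage) to 100 (total plant kill), taken 13 days after treatment. Compound was sprayed one day post-sowing at 15.625, 62.5 or 250 g/ha in 50:50 acetone/water with 0.5% Tween 20.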

[8] = system: giant foxtail (Setaria faberi); experiment: Test G Pre-Emergence Protocol; details: Setaria faberi, pre-emergence, 312 h, evaluated after 13 days
Procedure, shortened: as §2

[9] = system: redroot pigweed (Amaranthus retroflexus); experiment: Test G Pre-Emergence Protocol; details: Amaranthus retroflexus, pre-emergence, 312 h, evaluated after 13 days
Procedure, shortened: as §2

[10] = system: velvetleaf (Abutilon theophrasti); experiment: Test G Pre-Emergence Protocol; details: Abutilon theophrasti, pre-emergence, 312 h, evaluated after 13 days
Procedure, shortened: as §2

corn (Zea mays) [11] = experiment: Test G Pre-Emergence Protocol; details: Zea mays, pre-emergence, 312 h, evaluated after 13 days
Procedure, shortened: as §2

[12] = system: ivy-leaved morning glory (Ipomoea hederacea); experiment: Test G Pre-Emergence Protocol; details: Ipomoea, pre-emergence, 312 h, evaluated after 13 days
Procedure, shortened: as §2

## CN1C[C@H](c2cccc(C(F)F)c2)[C@@H](C(=O)Nc2cccc(F)c2F)C1=O (racemic) [Compound 1588]
[1]; 15.625 g ai/ha, evaluated after 13 days (100=total damage to plant; 0=no damage to plant), read-out: Barnyardgrass damage rating
  pest or weed control at 15.625 g/ha: 80%
[1]; 62.5 g ai/ha, evaluated after 13 days, read-out: Barnyardgrass damage rating (100=total damage to plant; 0=no damage to plant)
  pest or weed control at 62.5 g/ha: 80%
[1]; 250 g ai/ha, evaluated after 13 days, read-out: damage to plant, Barnyardgrass (100=total damage to plant; 0=no damage to plant)
  pest or weed control at 250 g/ha: 80%
[2]; 15.625 g ai/ha, evaluated after 13 days (100=total damage to plant; 0=no damage to plant), read-out: Foxtail, Giant damage rating
  pest or weed control at 15.625 g/ha: 60%
[2]; 62.5 g ai/ha, evaluated after 13 days, read-out: Foxtail, Giant damage rating (100=total damage to plant; 0=no damage to plant)
  pest or weed control at 62.5 g/ha: 70%
[2]; 250 g ai/ha, evaluated after 13 days, read-out: damage to plant, Foxtail, Giant (100=total damage to plant; 0=no damage to plant)
  pest or weed control at 250 g/ha: 70%
[3]; 15.625 g ai/ha, evaluated after 13 days (100=total damage to plant; 0=no damage to plant), read-out: Pigweed, Redroot damage rating
  pest or weed control at 15.625 g/ha: 0%
[3]; 62.5 g ai/ha, evaluated after 13 days, read-out: Pigweed, Redroot damage rating (100=total damage to plant; 0=no damage to plant)
  pest or weed control at 62.5 g/ha: 0%
[3]; 250 g ai/ha, evaluated after 13 days, read-out: damage to plant, Pigweed, Redroot (100=total damage to plant; 0=no damage to plant)
  pest or weed control at 250 g/ha: 20%
[4]; 15.625 g ai/ha, evaluated after 13 days (100=total damage to plant; 0=no damage to plant), read-out: Velvetleaf damage rating
  pest or weed control at 15.625 g/ha: 0%
[4]; 62.5 g ai/ha, evaluated after 13 days, read-out: Velvetleaf damage rating (100=total damage to plant; 0=no damage to plant)
  pest or weed control at 62.5 g/ha: 0%
[4]; 250 g ai/ha, evaluated after 13 days, read-out: damage to plant, Velvetleaf (100=total damage to plant; 0=no damage to plant)
  pest or weed control at 250 g/ha: 40%
Corn (Zea mays) [5]; 15.625 g ai/ha, evaluated after 13 days (100=total damage to plant; 0=no damage to plant), read-out: Corn damage rating
  plant injury at 15.625 g/ha: 60%
Corn (Zea mays) [5]; 62.5 g ai/ha, evaluated after 13 days, read-out: Corn damage rating (100=total damage to plant; 0=no damage to plant)
  plant injury at 62.5 g/ha: 80%
Corn (Zea mays) [5]; 250 g ai/ha, evaluated after 13 days, read-out: damage to plant, Corn (100=total damage to plant; 0=no damage to plant)
  plant injury at 250 g/ha: 80%
[6]; 15.625 g ai/ha, evaluated after 13 days (100=total damage to plant; 0=no damage to plant), read-out: Morningglory, Ivy-leaved damage rating
  pest or weed control at 15.625 g/ha: 70%
[6]; 62.5 g ai/ha, evaluated after 13 days, read-out: Morningglory, Ivy-leaved damage rating (100=total damage to plant; 0=no damage to plant)
  pest or weed control at 62.5 g/ha: 20%
[6]; 250 g ai/ha, evaluated after 13 days, read-out: damage to plant, Morningglory, Ivy-leaved (100=total damage to plant; 0=no damage to plant)
  pest or weed control at 250 g/ha: 50%
[7]; 15.625 g ai/ha, read-out: Barnyard grass damage rating (100=total damage to plant; 0=no damage to plant)
  pest or weed control at 15.625 g/ha: 80%
[7]; 62.5 g ai/ha, 100=total damage to plant, 0=no damage to plant, read-out: plant damage rating, Barnyardgrass
  pest or weed control at 62.5 g/ha: 90%
[7]; 250 g ai/ha, read-out: Barnyardgrass damage rating (100=total damage to plant; 0=no damage to plant)
  pest or weed control at 250 g/ha: 90%
[8]; 15.625 g ai/ha, read-out: Foxtail, Giant damage rating (100=total damage to plant; 0=no damage to plant)
  pest or weed control at 15.625 g/ha: 70%
[8]; 62.5 g ai/ha, 100=total damage to plant, 0=no damage to plant, read-out: plant damage rating, Foxtail, Giant
  pest or weed control at 62.5 g/ha: 80%
[8]; 250 g ai/ha, read-out: Foxtail, Giant damage rating (100=total damage to plant; 0=no damage to plant)
  pest or weed control at 250 g/ha: 90%
[9]; 15.625 g ai/ha, read-out: Pigweed, Redroot damage rating (100=total damage to plant; 0=no damage to plant)
  pest or weed control at 15.625 g/ha: 0%
[9]; 62.5 g ai/ha, 100=total damage to plant, 0=no damage to plant, read-out: plant damage rating, Pigweed, Redroot
  pest or weed control at 62.5 g/ha: 40%
[9]; 250 g ai/ha, read-out: Pigweed, Redroot damage rating (100=total damage to plant; 0=no damage to plant)
  pest or weed control at 250 g/ha: 70%
[10]; 15.625 g ai/ha, read-out: Velvetleaf damage rating (100=total damage to plant; 0=no damage to plant)
  pest or weed control at 15.625 g/ha: 0%
[10]; 62.5 g ai/ha, 100=total damage to plant, 0=no damage to plant, read-out: plant damage rating, Velvetleaf
  pest or weed control at 62.5 g/ha: 10%
[10]; 250 g ai/ha, read-out: Velvetleaf damage rating (100=total damage to plant; 0=no damage to plant)
  pest or weed control at 250 g/ha: 20%
Corn (Zea mays) [11]; 15.625 g ai/ha, read-out: Corn damage rating (100=total damage to plant; 0=no damage to plant)
  plant injury at 15.625 g/ha: 40%
Corn (Zea mays) [11]; 62.5 g ai/ha, 100=total damage to plant, 0=no damage to plant, read-out: plant damage rating, Corn
  plant injury at 62.5 g/ha: 60%
Corn (Zea mays) [11]; 250 g ai/ha, read-out: Corn damage rating (100=total damage to plant; 0=no damage to plant)
  plant injury at 250 g/ha: 80%
[12]; 15.625 g ai/ha, read-out: Morning-glory, Ivy-leaved damage rating (100=total damage to plant; 0=no damage to plant)
  pest or weed control at 15.625 g/ha: 20%
[12]; 62.5 g ai/ha, 100=total damage to plant, 0=no damage to plant, read-out: plant damage rating, Morningglory, Ivy-leaved
  pest or weed control at 62.5 g/ha: 0%
[12]; 250 g ai/ha, read-out: Morningglory, Ivy-leaved damage rating (100=total damage to plant; 0=no damage to plant)
  pest or weed control at 250 g/ha: 80%
